The source of these data is patent publication US5496935A, “2',3'-dideoxynucleoside pyrimidine compounds and carbocyclic analogs” (Max-Delbru/ ck-Centrum, priority 1994, dated 1996).

pEC50, pIC50: −log10 of the molar value.

Data set [1] can be described thus: Antiproliferative effect on MT-4 cells. Particulars: human, mt-4 cells. The data set is classed as cell-based, human. The text has this:
(§1) Under in vitro conditions, an infection of T lymphocytes with HIV leads to the death of the cells within a few days. The MT-4 cells, described by Harada et al. in Science 229, 563 (1985), were used in a test system (Matthes et al., Biochem. Biophys., Res. Commun. 153, 825 (1988)), to test to what extent the inventive nucleosides can nullify the cytocidal effect of HIV-1 (HTLV IIIa) on this T cell line. In addition, the antiproliferative effectiveness of the nucleosides investigated is listed and, moreover, as the concentration which decreases the proliferation of the MT-4 cells by 50% (CD50). […]
(§2) Comparison of the antiviral and antiproliferative effectiveness
(§3) of nucleoside analogies using MT-4 cells

For data set [2], the system named is HIV-1 (HTLV IIIa). The experiment in a line: Inhibition of the cytopathic effect of HIV on T lymphocyte cells (protection of MT-4 cells). It counts as cell-based. Particulars: for pEC50: Human immunodeficiency virus 1, MT4, 50% protection of MT-4 cells against HIV-1 (HTLV IIIa), read-out: 50% antiviral dose (ED50).
Excerpt: 2. Inhibition of the cytopathic effect of HIV on T lymphocyte cells
Under in vitro conditions, an infection of T lymphocytes with HIV leads to the death of the cells within a few days. The MT-4 cells, described by Harada et al. in Science 229, 563 (1985), were used in a test system (Matthes et al., Biochem. Biophys., Res. Commun. 153, 825 (1988)), to test to what extent the inventive nucleosides can nullify the cytocidal effect of HIV-1 (HTLV IIIa) on this T cell line. In addition, the antiproliferative effectiveness of the nucleosides investigated is listed and, moreover, as the concentration which decreases the proliferation of the MT-4 cells by 50% (CD50).
as §2, §3
(In general: Protection from cytopathic effect is a common read-out in antiviral testing.)

Data set [3] has as its system AIDS patients. Conditions: cited from earlier work.
Data set [4] can be described thus: In vitro cytotoxicity to cell cultures, H-8. The data set is classed as cell-based. Particulars: human, h-8 cells; read-out: CD50, antiproliferative effect. From the text: (§4) 3. In vitro cytotoxicity of 3'-fluoro-4-thiothymidine to cell cultures
(§5) A series of further human cell lines was included in the investigation of the antiproliferative effect of 3'-fluoro-4-thiothymidine and the following CD50 were found: […]

Data set [5] is described as follows: In vitro cytotoxicity to cell cultures, Molt-4. The data set is classed as cell-based. Particulars: human, molt-4 cells; read-out: CD50, antiproliferative effect.
Excerpt: as §4, §5

Data set [6] is described as follows: In vitro cytotoxicity to cell cultures, HELFI. It counts as cell-based. Particulars: human, helfi lung fibroblasts; read-out: CD50, antiproliferative effect.
Excerpt: as §4, §5

Data set [7] concerns MT-4 cells. In words: Antiproliferative effect on MT-4 cells. It counts as cell-based, human.
Excerpt: as §1, §2, §3

Data set [8] concerns colony-forming cells of the bone marrow of the mouse (GM-CFU). The experiment in a line: Growth inhibition of colony-forming cells of the bone marrow (GM-CFU). Particulars: concentrations up to 100 micromoles/L. It counts as cell-based.
Data set [9] in a line: In vitro cytotoxicity to cell cultures, REH. It counts as cell-based. Conditions: human, reh cells; read-out: CD50, antiproliferative effect.
Excerpt: as §4, §5

The target of data set [10] is T1, HIV-associated reverse transcriptase (HIV-RT) (Human immunodeficiency virus type 1 group M subtype B, UniProt P04585).
T1 construct: HIV-associated reverse transcriptase (HIV-RT)
In words: Inhibition of the HIV-associated reverse transcriptase (HIV-RT). The data set is classed as biochemical. On the procedure:
1. Selective inhibition of the HIV-associated reverse transcriptase (HIV-RT) by 3'-fluoro-4-thiothymidine-triphosphate
(§6) For these investigations, the effect of the compound on the activity of HIV-RT as well as on the cellular DNA polymerase was determined using the methods described by Matthes et al., in Biochem. Biophys. Res. Commun. 148, 78 (1987). Different concentrations of 3'-fluoro-4-thiothymidine triphosphate were added to the enzyme preparations. The concentrations of 3'-fluoro-4-thiothymidine triphosphate, which inhibit the polymerases investigated to the extent of 50% (ID50), were determined from the inhibition curves obtained. […] Accordingly 3'-fluoro-4-thiothymidine triphosphate inhibits the HIV-RT 700 times more effectively than the cellular DNA polymerase and thus has a largely selective effect on the HIV replication.

The target in data set [11] is T2, DNA polymerase (Homo sapiens, UniProt P09884).
T2 sequence (P09884 1-1462): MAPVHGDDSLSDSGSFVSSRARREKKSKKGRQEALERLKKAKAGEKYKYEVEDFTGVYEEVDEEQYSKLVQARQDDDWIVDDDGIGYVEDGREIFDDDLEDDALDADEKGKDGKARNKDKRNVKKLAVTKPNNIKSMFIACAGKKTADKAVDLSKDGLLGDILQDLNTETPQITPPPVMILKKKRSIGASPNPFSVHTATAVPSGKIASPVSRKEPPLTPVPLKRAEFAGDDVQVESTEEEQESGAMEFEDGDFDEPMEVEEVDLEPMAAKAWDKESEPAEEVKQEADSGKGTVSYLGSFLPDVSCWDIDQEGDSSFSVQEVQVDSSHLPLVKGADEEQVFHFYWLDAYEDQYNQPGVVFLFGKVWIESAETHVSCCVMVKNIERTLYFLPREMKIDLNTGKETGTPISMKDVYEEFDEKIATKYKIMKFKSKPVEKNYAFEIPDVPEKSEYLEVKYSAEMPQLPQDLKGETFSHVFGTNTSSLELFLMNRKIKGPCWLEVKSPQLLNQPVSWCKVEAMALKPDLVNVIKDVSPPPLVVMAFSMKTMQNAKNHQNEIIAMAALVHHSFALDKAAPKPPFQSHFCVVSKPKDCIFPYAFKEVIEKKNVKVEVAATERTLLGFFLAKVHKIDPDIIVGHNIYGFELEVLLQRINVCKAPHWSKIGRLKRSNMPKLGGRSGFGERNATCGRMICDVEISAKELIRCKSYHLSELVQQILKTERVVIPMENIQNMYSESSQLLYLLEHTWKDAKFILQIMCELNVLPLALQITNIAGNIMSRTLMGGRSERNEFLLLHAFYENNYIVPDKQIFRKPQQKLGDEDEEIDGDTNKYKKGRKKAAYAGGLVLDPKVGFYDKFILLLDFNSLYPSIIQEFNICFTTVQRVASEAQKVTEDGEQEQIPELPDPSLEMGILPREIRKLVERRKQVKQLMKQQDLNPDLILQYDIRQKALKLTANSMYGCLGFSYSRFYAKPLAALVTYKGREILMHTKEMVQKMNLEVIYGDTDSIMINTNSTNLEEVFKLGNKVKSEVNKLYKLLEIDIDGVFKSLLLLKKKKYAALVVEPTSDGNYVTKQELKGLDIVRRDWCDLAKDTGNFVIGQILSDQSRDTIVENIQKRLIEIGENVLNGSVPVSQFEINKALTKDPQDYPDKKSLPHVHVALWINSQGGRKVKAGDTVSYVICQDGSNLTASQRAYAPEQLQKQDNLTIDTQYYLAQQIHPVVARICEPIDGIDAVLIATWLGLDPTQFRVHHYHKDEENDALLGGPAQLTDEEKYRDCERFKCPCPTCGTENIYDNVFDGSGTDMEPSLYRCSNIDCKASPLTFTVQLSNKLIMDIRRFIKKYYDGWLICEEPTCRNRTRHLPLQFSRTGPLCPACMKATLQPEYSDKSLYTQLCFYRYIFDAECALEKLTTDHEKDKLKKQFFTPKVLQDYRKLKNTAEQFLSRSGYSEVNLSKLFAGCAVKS
The experiment in a line: Inhibition of cellular DNA polymerase (enzyme mainly responsible for cellular replication). The data set is classed as biochemical. Particulars: read-out: ID50 (concentration inhibiting the polymerase to the extent of 50%), DNA polymerase. On the procedure:
as §6

Data set [12] concerns the target DNA polymerase β (Homo sapiens, UniProt P06746). The experiment in a line: Inhibition of DNA polymerase β (cellular DNA repair enzyme). Conditions: read-out: ID50 (concentration inhibiting the polymerase to the extent of 50%), DNA polymerase β. The data set is classed as biochemical. The procedure: as §6
The mark [13] stands for this setting: AIDS patients with Pneumocystis carinii pneumonia.

In data set [1], `O=c1nc(NO)ccn1[C@H]1C[C@H](F)[C@@H](CO)O1` [1-(2,3-Dideoxy-3-fluoro-β-D-glycero-ribofuranosyl)-4-hydroxylamino-(1H)-pyrimidine-2-one] had a CC50 of 100 µM. Also, the pEC50 in [2] was 4.00.
Consider `CSc1nc(=O)n([C@H]2C[C@H](F)[C@@H](CO)O2)cc1C` [1-(2,3-Dideoxy-3-fluoro-β-D-ribofuranosyl)-4-methylmercapto-5-methyl-(1H)-pyrimidine-2-one], for which the CC50 in data set [1] is greater than 1000 µM. Also, in data set [2], the pEC50 is less than 3.00.
`Cc1cn([C@H]2C[C@H](N=[N+]=[N-])[C@@H](CO)O2)c(=O)[nH]c1=O` [3'-azidothymidine]: in data set [3] (setting [13]), the “clinical and neurological findings (in words)” value is “improvements in clinical and neurological findings”; the “immunological functions (in words)” value is on record as “occasional restoration of certain immunological functions”; the “life prolonging effects (in words)” value is on record as “unambiguous life prolonging effects”. Also, in data set [3] (AIDS patients), the “patients in whom toxic side effects on the bone marrow make blood transfusions necessary” value is listed as “about 50%”.
In the case of `Cc1cn([C@H]2C[C@H](F)[C@@H](CO)O2)c(=O)nc1NO` [1-(2,3-Dideoxy-3-fluoro-β-D-ribofuranosyl)-4-hydroxylamino-5-methyl-(1H)-pyrimidine-2-one], the CC50 in [1] amounted to 300 µM. In [2], the pEC50 is 4.00.
As to `Cc1cn([C@H]2C[C@H](F)[C@@H](CO)O2)c(=O)[nH]c1=S` [1-(2,3-Dideoxy-3-fluoro-β-D-ribofuranosyl)-4-thiothymine], the CC50 in data set [4] was no less than 800 µM; in data set [5], no less than 1000 µM; in data set [6], 700 µM; in data set [1], 480 µM; in data set [9] it was 500 µM. Further, in data set [7] (MT-4 cells), the “effect on cell proliferation (in words)” value is “hardly any effect on the cell proliferation”. The “cytotoxicity (summary in words)” value in [7] (summary of the cell tests) was “very slight cytotoxicity”. In [2], the “inhibition of HIV replication (summary in words)” value is recorded as “effective inhibitor of HIV replication”. Besides, in data set [2], the pEC50 was 5.74. In [8], the “growth-inhibiting effect on colony-forming cells of the bone marrow” value is reported as “no growth-inhibiting effect whatsoever”.
The molecule `Cc1cn([C@H]2C=C[C@@H](CO)O2)c(=O)[nH]c1=S` [1-(2,3-Dideoxy-β-D-glycero-pent-2-enofuranosyl)-4-thiothymine] showed a CC50 in data set [1] of 350 µM. The pEC50 in [2] is 6.07.
As to `Cc1ccc(C(=O)Nc2ccc(S(=O)(=O)O)c3cc(S(=O)(=O)O)cc(S(=O)(=O)O)c23)cc1NC(=O)c1cccc(NC(=O)Nc2cccc(C(=O)Nc3cc(C(=O)Nc4ccc(S(=O)(=O)O)c5cc(S(=O)(=O)O)cc(S(=O)(=O)O)c45)ccc3C)c2)c1` [Suranim], the “tolerance and effectiveness (in words)” value in data set [3] (clinically tested) was “have not yet attained the necessary tolerance and the hoped-for effectiveness”.
In the case of `Cc1cnc(=O)n([C@H]2C[C@H](F)[C@@H](CO)O2)c1` [1-(2,3-dideoxy-3-fluoro-β-D-ribofuranosyl)-5-methyl-pyrimidine-2-one], the CC50 in [1] is greater than 400 µM. Besides, in data set [2], the pEC50 is 4.92.
For `CSc1ccn([C@H]2C[C@H](F)[C@@H](CO)O2)c(=O)n1` [1-(2,3-dideoxy-3-fluoro-β-D-ribofuranosyl)-4-methylmercapto-pyrimidine-2-one], in that order: 50 µM and 4.92.
For the molecule `Cc1cn([C@H]2C[C@H](F)[C@@H](COP(=O)(O)OP(=O)(O)OP(=O)(O)O)O2)c(=O)[nH]c1=S` [3'-fluoro-4-thiothymidine triphosphate, 1-(2,3-Dideoxy-3-fluoro-β-D-ribofuranosyl)-4-thiothymine-5'-triphosphate], in [10] (HIV-RT versus cellular DNA polymerase), the “inhibits the HIV-RT times more effectively than the cellular DNA polymerase” value came out at 700 times. Further, the pIC50 in [10] (HIV-RT, read-out: ID50 (concentration inhibiting the polymerase to the extent of 50%), HIV-RT) is 6.52; in [11], 3.85; in [12], 5.15.
In the case of `O=c1[nH]c(=S)ccn1[C@H]1C[C@H](F)[C@@H](CO)O1` [1-(2,3-Dideoxy-3-fluoro-β-D-ribofuranosyl)-4-thiouracil], the CC50 in data set [1] worked out at 150 µM. For the same molecule, the pEC50 in [2] is 4.82.
For `O=c1ncccn1[C@H]1C[C@H](F)[C@@H](CO)O1` [1-(2,3-dideoxy-3-fluoro-β-D-ribofuranosyl)-pyrimidine-2-one], in that order: greater than 800 µM and 4.52.
